From patent US12054562B2, “Cell-permeable inhibitory agent and methods of use thereof in treatment of cognitive and mood disorders” (priority 2015, dated 2024)

Key:
[1] = biological target: T1, α2 subunit containing GABAA receptors (Mus musculus, UniProt P26048); experiment: Co-IP and WB, gephyrin and α2 subunit containing GABAA receptors; format: binding; conditions: immunoprecipitates from Example 1, hippocampal tissue
T1 construct: α1 and α2 subunit containing GABAA receptors in the hippocampal tissue; from tissue; host or cells: hippocampus of adult mice
T1 sequence (P26048 29-451): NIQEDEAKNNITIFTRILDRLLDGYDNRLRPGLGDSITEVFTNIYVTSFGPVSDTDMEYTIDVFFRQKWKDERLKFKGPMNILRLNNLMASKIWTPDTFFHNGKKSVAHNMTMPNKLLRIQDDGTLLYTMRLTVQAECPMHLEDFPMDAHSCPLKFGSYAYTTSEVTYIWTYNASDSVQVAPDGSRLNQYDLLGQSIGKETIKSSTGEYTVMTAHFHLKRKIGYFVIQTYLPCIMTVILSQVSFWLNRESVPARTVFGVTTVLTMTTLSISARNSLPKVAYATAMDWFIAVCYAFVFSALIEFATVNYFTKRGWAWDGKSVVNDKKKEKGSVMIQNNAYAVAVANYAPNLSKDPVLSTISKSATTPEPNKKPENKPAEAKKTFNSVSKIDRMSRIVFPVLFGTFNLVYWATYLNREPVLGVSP

[2] = test system: α5GABAA receptors; experiment: Surface biotinylation assay of α5 subunit in ex vivo brain slices after i.p. peptide; design: species or system mouse; conditions: peptide 20 mg/kg, etomidate-treated adult male mice
Method: We next asked whether injection of inhibitory peptide, when administered to mice in vivo by I.P. injection, reduced the level of α5GABAA receptors expressed in the hippocampus. To test whether the peptide reduces α5GABAA receptor cell-surface expression in vivo, we took advantage of a mouse model that we developed recently (Zurek, et al., 2014), in which up-regulation of α5GABAA receptor cell surface expression causes memory deficits. Adult mice (22-25 g) were treated with etomidate (8 mg/kg, i.p.), and sacrificed 24 hrs later according to a protocol approved by the Animal Care Committee of the University of Toronto. The hippocampi were collected and subject to experiments. We first measured the level of radixin phosphorylation, because radixin phosphorylation is required for the recruitment of α5GABAA receptors to extrasynaptic sites of the neurons (Loebrich et al., 2006; Hausrat et al., 2015). The antibody against threonine at 564 of radixin, which is specific for radixin phosphorylation involving α5GABAA receptor extra-synaptic trafficking, was used for these studies (Choii et al., 2015; Hausrat et al., 2015). […] We next examined whether the inhibitory peptide prevented α5GABAA receptor from trafficking to surface membrane in vivo by studying ex vivo brain slices. […]

[3] = test system: etomidate-induced memory deficits in mice; experiment: Novel object recognition task, prevention paradigm; format: in vivo, mouse; conditions: Etom 8 mg/kg plus α5 peptide 20 mg/kg i.p., NOR next day
From the text: The novel object recognition task involves the presentation of two identical objects for visual inspection (in the case of humans and non-human primates) and exploration in the case of rodents. After a delay, one of the original objects is presented together with a new (novel) object. Humans and animals normally spend time more time looking at (or in the case of mice, exploring) the novel object. Indeed, the test relies on the innate preference of humans and animals for novelty. The inspection or interaction time differs only if the familiar object is recognized. Otherwise, the subject spends an equal amount of time inspecting both objects. […]
In the present study, mice were handled two times a day, 5 min each before start of behavioral experiments. Object recognition was assessed in a circle opaque chamber with the diameter of 38.5 cm in a regular lit room. […] Movement and interaction with the objects was recorded with a video camera that was mounted above the chamber. The exploratory behavior and mouse activity was analyzed blindly by a person with a good training and the software EthoVision, XT v11.5 provided by the Noldus Information Tech Inc., (Leesburg VA, USA). […] Memory was assessed by measuring the novelty preference ratio (i.e., the ratio of time spent exploring the novel object to the time spent exploring both objects). […]

[4] = test system: mice; conditions: mouse, in vivo
Method: In the present study, mice were handled two times a day, 5 min each before start of behavioral experiments. Object recognition was assessed in a circle opaque chamber with the diameter of 38.5 cm in a regular lit room. Each mouse was habituated to the chamber for 5 min since day 3. During the training phase, the mouse was allowed to explore two identical objects for 5 min. The mouse was then returned to its home cage for a retention period of 1 h. The mouse was reintroduced to the training context and presented with one familiar object and one novel object for 5 min. Movement and interaction with the objects was recorded with a video camera that was mounted above the chamber. The exploratory behavior and mouse activity was analyzed blindly by a person with a good training and the software EthoVision, XT v11.5 provided by the Noldus Information Tech Inc., (Leesburg VA, USA). Exploratory behavior was defined as sniffing, licking, or touching the object while facing the object. Memory was assessed by measuring the novelty preference ratio (i.e., the ratio of time spent exploring the novel object to the time spent exploring both objects). […] Total interaction time with both objects was compared between groups to determine whether the treatments affected locomotor activity or exploration during the testing phase.
Specifically, we studied whether the use of the inhibitory peptide with etomidate prevented etomidate-induced memory deficits (attributed to the increase in cell surface expression of α5GABAA receptors). […] Saline and 35% propylene glycol were used as the vehicle control. NOR was conducted the next day.

NYFTKRGWAWDGKKAL [inhibitory peptide]
effects on α2 subunit containing GABAA receptors (gephyrin interaction) [1]: did not have any effects | expression of α5GABAA receptors on the cell surface [2]: selectively prevented | α5GABAA total protein production [2]: did not change | etomidate-induced memory deficits (NOR, prevention) [3]: could prevent | Body Angle State Bent [4]: 6 ± 3 s | Body Angle State Bent (%) [4]: 2% | Body Angle State Straight [4]: 269 ± 45 s | Body Angle State Straight (%) [4]: 98% | Body Elongation State Contracted [4]: 48 ± 66 s | Body Elongation State Contracted (%) [4]: 16% | Body Elongation State Normal [4]: 252 ± 66 s | Body Elongation State Normal (%) [4]: 84% | Body Elongation State Stretched [4]: 0 s | Rotation Frequency [4]: 5.5 ± 1.7
